{
  "source": "PubChem BioAssay AID212",
  "about": "(DTP/NCI, 2004)",
  "tested_on": "BDF1 mice, colon carcinoma 38 sc, T/C %",
  "assay": "NCI In Vivo Anticancer Drug Screen. Data for tumor model Colon Carcinoma 38 (subcutaneous) in B6D2F1 (BDF1) mice",
  "conditions": "endpoint: median tumor weight (est.), higher = larger tumour",
  "in_short": "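Ratio of survival or tumor size, compound-treated animals relative to vehicle controls, in tumor-bearing mice.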",
  "key": {"[1]": {"conditions": "dose: 200.0 mg/kg/injection, schedule: Q07DX002 (ip), vehicle: saline with Tween-80"}},
  "note": "Values joined by “and” are separate entries in the source; they are usually repeats but may differ in a detail not shown here. Equal values may be shown once. Inconclusive results are not listed.",
  "data": [
    {"smiles": "CSc1cc(C)[o+]c(C)c1", "values": [
      {"measurement": "T/C", "setting": "dose: 25.0 mg/kg/injection, schedule: Q07DX002 (ip), vehicle: Klucel (hydroxypropylcellulose) (HPC)", "result": "117 % of control"},
      {"measurement": "T/C", "setting": "dose: 50.0 mg/kg/injection, schedule: Q07DX002 (ip), vehicle: Klucel (hydroxypropylcellulose) (HPC)", "result": "184 % of control"},
      {"measurement": "T/C", "setting": "dose: 200.0 mg/kg/injection, schedule: Q07DX002 (ip), vehicle: Klucel (hydroxypropylcellulose) (HPC)", "result": "108 % of control"}
    ]},
    {"smiles": "CC1(C)COCN1COC1CCCCC1", "values": [
      {"measurement": "T/C", "setting": "dose: 25.0 mg/kg/injection, schedule: Q07DX002 (ip), vehicle: suspension in saline", "result": "84 % of control"},
      {"measurement": "T/C", "setting": "dose: 50.0 mg/kg/injection, schedule: Q07DX002 (ip), vehicle: suspension in saline", "result": "93 % of control"},
      {"measurement": "T/C", "setting": "dose: 100.0 mg/kg/injection, schedule: Q07DX002 (ip), vehicle: suspension in saline", "result": "97 % of control"},
      {"measurement": "T/C", "setting": "dose: 200.0 mg/kg/injection, schedule: Q07DX002 (ip), vehicle: suspension in saline", "result": "64 % of control"}
    ]},
    {"smiles": "CCCCc1ccc2nc(NC(=O)OC)[nH]c2c1", "values": [
      {"measurement": "T/C", "setting": "dose: 12.5 mg/kg/injection, schedule: Q07DX002 (ip), vehicle: saline with Tween-80", "result": "114 % of control"},
      {"measurement": "T/C", "setting": "dose: 25.0 mg/kg/injection, schedule: Q07DX002 (ip), vehicle: saline with Tween-80", "result": "83 % of control"},
      {"measurement": "T/C", "setting": "dose: 50.0 mg/kg/injection, schedule: Q07DX002 (ip), vehicle: saline with Tween-80", "result": "98 % of control"},
      {"measurement": "T/C", "setting": "[1]", "result": "87 % of control"}
    ]},
    {"smiles": "CN(C)N=Nc1cccc(C(N)=O)c1", "values": [
      {"measurement": "T/C", "setting": "dose: 10.0 mg/kg/injection, schedule: Q07DX002 (ip), vehicle: Klucel (hydroxypropylcellulose) (HPC)", "result": "86 % of control"},
      {"measurement": "T/C", "setting": "dose: 20.0 mg/kg/injection, schedule: Q07DX002 (ip), vehicle: Klucel (hydroxypropylcellulose) (HPC)", "result": "86 % of control"},
      {"measurement": "T/C", "setting": "dose: 20.0 mg/kg/injection, schedule: Q07DX002 (ip), vehicle: saline", "result": "97 % of control"},
      {"measurement": "T/C", "setting": "dose: 40.0 mg/kg/injection, schedule: Q07DX002 (ip), vehicle: Klucel (hydroxypropylcellulose) (HPC)", "result": "44 % of control"},
      {"measurement": "T/C", "setting": "dose: 40.0 mg/kg/injection, schedule: Q07DX002 (ip), vehicle: saline", "result": "114 % of control and 104 % of control"},
      {"measurement": "T/C", "setting": "dose: 80.0 mg/kg/injection, schedule: Q07DX002 (ip), vehicle: Klucel (hydroxypropylcellulose) (HPC)", "result": "18 % of control"},
      {"measurement": "T/C", "setting": "dose: 160.0 mg/kg/injection, schedule: Q07DX002 (ip), vehicle: saline", "result": "27 % of control and 29 % of control"}
    ]},
    {"smiles": "CN(C)c1ccc2c(NCCCCCCNc3ccnc4cc(N(C)C)ccc34)ccnc2c1", "values": [
      {"measurement": "T/C", "setting": "dose: 3.12 mg/kg/injection, schedule: Q07DX002 (ip), vehicle: distilled water + Tween-80 + alcohol", "result": "81 % of control"},
      {"measurement": "T/C", "setting": "dose: 6.25 mg/kg/injection, schedule: Q07DX002 (ip), vehicle: distilled water + Tween-80 + alcohol", "result": "77 % of control"},
      {"measurement": "T/C", "setting": "dose: 12.5 mg/kg/injection, schedule: Q07DX002 (ip), vehicle: distilled water + Tween-80 + alcohol", "result": "62 % of control"},
      {"measurement": "T/C", "setting": "dose: 25.0 mg/kg/injection, schedule: Q07DX002 (ip), vehicle: distilled water + Tween-80 + alcohol", "result": "62 % of control"},
      {"measurement": "T/C", "setting": "dose: 50.0 mg/kg/injection, schedule: Q07DX002 (ip), vehicle: distilled water + Tween-80 + alcohol", "result": "47 % of control"},
      {"measurement": "T/C", "setting": "dose: 100.0 mg/kg/injection, schedule: Q07DX002 (ip), vehicle: distilled water + Tween-80 + alcohol", "result": "20 % of control"}
    ]},
    {"smiles": "Nc1ccc2ccc(NS(=O)(=O)N3CCCCC3)cc2c1", "values": [
      {"measurement": "T/C", "setting": "dose: 100.0 mg/kg/injection, schedule: Q07DX002 (ip), vehicle: saline with Tween-80", "result": "120 % of control"},
      {"measurement": "T/C", "setting": "[1]", "result": "99 % of control"},
      {"measurement": "T/C", "setting": "dose: 400.0 mg/kg/injection, schedule: Q07DX002 (ip), vehicle: saline with Tween-80", "result": "124 % of control"}
    ]},
    {"smiles": "CC[C@]1(O)C[C@H](OC2CC(N(C)C)C(OC3CC(O)C(O)C(C)O3)C(C)O2)c2c(cc3c(c2O)C(=O)c2c(O)ccc(O)c2C3=O)[C@H]1C(=O)OC", "note": "(stereo partly specified)", "values": [
      {"measurement": "T/C", "setting": "dose: 0.38 mg/kg/injection, schedule: Q07DX003 (ip), vehicle: Klucel (hydroxypropylcellulose) (HPC)", "result": "109 % of control"},
      {"measurement": "T/C", "setting": "dose: 0.5 mg/kg/injection, schedule: Q07DX003 (ip), vehicle: Klucel (hydroxypropylcellulose) (HPC)", "result": "45 % of control"},
      {"measurement": "T/C", "setting": "dose: 0.75 mg/kg/injection, schedule: Q07DX003 (ip), vehicle: Klucel (hydroxypropylcellulose) (HPC)", "result": "62 % of control"},
      {"measurement": "T/C", "setting": "dose: 1.0 mg/kg/injection, schedule: Q07DX003 (ip), vehicle: Klucel (hydroxypropylcellulose) (HPC)", "result": "25 % of control"},
      {"measurement": "T/C", "setting": "dose: 1.5 mg/kg/injection, schedule: Q07DX003 (ip), vehicle: Klucel (hydroxypropylcellulose) (HPC)", "result": "66 % of control"},
      {"measurement": "T/C", "setting": "dose: 3.0 mg/kg/injection, schedule: Q07DX003 (ip), vehicle: Klucel (hydroxypropylcellulose) (HPC)", "result": "73 % of control"},
      {"measurement": "T/C", "setting": "dose: 4.0 mg/kg/injection, schedule: Q07DX003 (ip), vehicle: Klucel (hydroxypropylcellulose) (HPC)", "result": "35 % of control"},
      {"measurement": "T/C", "setting": "dose: 6.0 mg/kg/injection, schedule: Q07DX003 (ip), vehicle: Klucel (hydroxypropylcellulose) (HPC)", "result": "79 % of control"},
      {"measurement": "T/C", "setting": "dose: 8.0 mg/kg/injection, schedule: Q07DX003 (ip), vehicle: Klucel (hydroxypropylcellulose) (HPC)", "result": "21 % of control"}
    ]}
  ]
}
